The text below walks through data of article PMC3397457, “Preclinical Evaluation of Anticancer Efficacy and Pharmacological Properties of FBA-TPQ, a Novel Synthetic Makaluvamine Analog” (Marine Drugs, 2012).

The subject of assay [1] is HPAC cells. The assay can be described thus: MTT cell survival assay, HPAC. The assay is classed as cell-based. The conditions noted are these: Homo sapiens, 72 h, read-out: Cytotoxicity IC50. On the procedure: (§1) We evaluated the effects of FBA-TPQ on the survival of several human pancreatic cancer cell lines, including HPAC (p53^+/+), Panc-1(p53^+/−), and Mia PaCa-2(p53^+/−), as well as normal IRM90 fetal fibroblast cells (Figure 2a). Cells were exposed to various concentrations of the test compound (0–10 µM) for 72 h, and cell survival rates were determined by the MTT assay, using a procedure reported previously. FBA-TPQ exerted potent effects against the test cancer cell lines, leading to significant decreases in cell viability.
(§2) Human pancreatic cancer cells were obtained from the American Type Culture Collection (Rockville, MD). All cell culture media contained 10% FBS and 1% penicillin/streptomycin. […]
(§3) The effect of the test compound on human pancreatic cancer cell viability, expressed as the percentage of cell survival, was determined using the MTT (3-(4,5-dimethylthiazol-2-yl)-2,5-diphenyl tetrazolium bromide) assay. […] The absorbance at 570 nm was recorded using an OPTImax microplate reader (Molecular Devices; Sunnyvale, CA, USA). The cell survival percentages were calculated by dividing the mean OD of compound-containing wells by that of DMSO-containing control wells. […]
On the technique in general: Formazan colour is commonly taken as a measure of viable cells.

Assay [2] has as its system Mia PaCa-2 cells. Description: MTT cell survival assay, Mia PaCa-2. The format is cell-based. The conditions noted are these: Homo sapiens, Mia PaCa-2, 72 h, read-out: Cytotoxicity IC50. As for the experimental part:
as §1, §2, §3

The subject of assay [3] is HPAC cells. The assay can be described thus: Cell cycle distribution by flow cytometry, HPAC. The conditions noted are these: 1 µM. The format is cell-based, human. As for the experimental part: (§4) The effects of FBA-TPQ on cell cycle distribution were analyzed using the previously reported methods; its effects appeared to be cell-line-dependent (Figure 2c). […] The differences in the responses of the different cell lines may be related to their expression of p53.
(§5) To determine the effect of FBA-TPQ on the cell cycle, cells (2–3 × 10^5) were exposed to the test compounds (0, 0.1, 0.5 or 1 µM) and incubated for 24 h prior to analysis. Cells were trypsinized, washed with PBS, and fixed in 1.5 mL of 95% ethanol and 0.5 mL of 0.9% saline solution at 4 °C overnight, followed by incubation with RNAse and staining with propidium iodide (Sigma). The DNA content was determined by flow cytometry. The cell cycle distribution was evaluated by comparing with that of the control cells.
A general note: In flow cytometry, cells or beads pass a laser one at a time.

For a further assay, the system named is Panc-1 cells. Description: Cell cycle distribution by flow cytometry, Panc-1. The format is cell-based, human. Conditions: Panc-1, 1 µM. On the procedure:
as §4, §5

In assay [4] the test system is Mia PaCa-2 cells. The assay can be described thus: Cell cycle distribution by flow cytometry, Mia PaCa-2. The assay is classed as cell-based, human. Conditions: Mia PaCa-2, 1 µM. On the procedure: as §4, §5

Usually IC50 stands for the concentration that inhibits the measured activity by half. For the molecule `O=C1C(NCc2ccc(F)cc2)=CC2=NCCc3c[nH]c1c32` [FBA-TPQ, 7-(4-fluorobenzylamino)-1,3,4,8-tetrahydropyrrolo[4,3,2-de]quinolin-8(1H)-one], the IC50 in the assay with HPAC cells [1] came to 540 ± 30 nM; in the assay on Mia PaCa-2 cells [2] it was 320 ± 10 nM. Also, the cell cycle arrest entry is listed as “arrest in the G2/M phase” in the assay with HPAC cells [3], “arrest in the S phase” in the assay with Panc-1 cells and “arrest in the S phase” in the assay on Mia PaCa-2 cells [4].
